According to US12721906B2, “Kidney targeted delivery of drugs” (The Brigham and Women's Hospital, Inc., priority 2020, dated 2026):

Experiments:
megalin [1] = target: megalin (Mus musculus, UniProt A2ARV4)
Experimental: Female C57BL/6 mice were divided into two groups. The first group (n=4) was treated subcutaneously with 100 mg/kg Cilastatin sodium salt (>98%, Sigma Aldrich, USA) once daily for 4 days, and the second group (n=3) was treated subcutaneously with DPBS for 4 days. On the day of the last treatment, the LC-NP was injected to the mice. 1 day post injection the mice were euthanized and perfused with DPBS, and the kidneys were harvested and imaged.
Without being bound by any particular theory, it was hypothesized that the accumulation of LC-NP in the PTECs of the kidney is dependent on its binding to megalin. To test this hypothesis, the mice were treated with cilastatin or vehicle (DPBS) for 4 days prior to injection of LC-NP. Cilastatin, an inhibitor of renal dehydropeptidase-I (DHP-I), blocks megalin-mediated uptake in the kidney through competitive inhibition^33. 24 hours post-injection of LC-NP, the mice were euthanized and the major organs were harvested for imaging. […] Next, the specific effect of cilastatin on the binding of LC-NPs to PTECs was examined by treating HK-2 human PTECs in vitro directly with LC-NPs and cilastatin.

megalin [2] = target: T1, megalin (Homo sapiens, UniProt P98164); assay: Uptake of LC-NPs by HK-2 cells after cilastatin or megalin siRNA; format: cell-based; conditions: in vitro
T1 construct: effective knockdown of megalin expression in HK-2 cells was performed using siRNA directed against the megalin gene; host or cells: HK-2 human kidney proximal tubular epithelial cells
Description: FIG. 4G-FIG. 4I. […] FIG. 4H: LC-NPs underwent lower uptake by HK-2 cells treated with cilastatin than vehicle (DPBS)-treated cells. […] Values are means±SD. means±SD. **P<0.01, and ***P<0.001 and ns: not significant as calculated by two-tailed Student's t-test.

Chain of megalin (Mus musculus, UniProt A2ARV4) (A2ARV4 26-4660): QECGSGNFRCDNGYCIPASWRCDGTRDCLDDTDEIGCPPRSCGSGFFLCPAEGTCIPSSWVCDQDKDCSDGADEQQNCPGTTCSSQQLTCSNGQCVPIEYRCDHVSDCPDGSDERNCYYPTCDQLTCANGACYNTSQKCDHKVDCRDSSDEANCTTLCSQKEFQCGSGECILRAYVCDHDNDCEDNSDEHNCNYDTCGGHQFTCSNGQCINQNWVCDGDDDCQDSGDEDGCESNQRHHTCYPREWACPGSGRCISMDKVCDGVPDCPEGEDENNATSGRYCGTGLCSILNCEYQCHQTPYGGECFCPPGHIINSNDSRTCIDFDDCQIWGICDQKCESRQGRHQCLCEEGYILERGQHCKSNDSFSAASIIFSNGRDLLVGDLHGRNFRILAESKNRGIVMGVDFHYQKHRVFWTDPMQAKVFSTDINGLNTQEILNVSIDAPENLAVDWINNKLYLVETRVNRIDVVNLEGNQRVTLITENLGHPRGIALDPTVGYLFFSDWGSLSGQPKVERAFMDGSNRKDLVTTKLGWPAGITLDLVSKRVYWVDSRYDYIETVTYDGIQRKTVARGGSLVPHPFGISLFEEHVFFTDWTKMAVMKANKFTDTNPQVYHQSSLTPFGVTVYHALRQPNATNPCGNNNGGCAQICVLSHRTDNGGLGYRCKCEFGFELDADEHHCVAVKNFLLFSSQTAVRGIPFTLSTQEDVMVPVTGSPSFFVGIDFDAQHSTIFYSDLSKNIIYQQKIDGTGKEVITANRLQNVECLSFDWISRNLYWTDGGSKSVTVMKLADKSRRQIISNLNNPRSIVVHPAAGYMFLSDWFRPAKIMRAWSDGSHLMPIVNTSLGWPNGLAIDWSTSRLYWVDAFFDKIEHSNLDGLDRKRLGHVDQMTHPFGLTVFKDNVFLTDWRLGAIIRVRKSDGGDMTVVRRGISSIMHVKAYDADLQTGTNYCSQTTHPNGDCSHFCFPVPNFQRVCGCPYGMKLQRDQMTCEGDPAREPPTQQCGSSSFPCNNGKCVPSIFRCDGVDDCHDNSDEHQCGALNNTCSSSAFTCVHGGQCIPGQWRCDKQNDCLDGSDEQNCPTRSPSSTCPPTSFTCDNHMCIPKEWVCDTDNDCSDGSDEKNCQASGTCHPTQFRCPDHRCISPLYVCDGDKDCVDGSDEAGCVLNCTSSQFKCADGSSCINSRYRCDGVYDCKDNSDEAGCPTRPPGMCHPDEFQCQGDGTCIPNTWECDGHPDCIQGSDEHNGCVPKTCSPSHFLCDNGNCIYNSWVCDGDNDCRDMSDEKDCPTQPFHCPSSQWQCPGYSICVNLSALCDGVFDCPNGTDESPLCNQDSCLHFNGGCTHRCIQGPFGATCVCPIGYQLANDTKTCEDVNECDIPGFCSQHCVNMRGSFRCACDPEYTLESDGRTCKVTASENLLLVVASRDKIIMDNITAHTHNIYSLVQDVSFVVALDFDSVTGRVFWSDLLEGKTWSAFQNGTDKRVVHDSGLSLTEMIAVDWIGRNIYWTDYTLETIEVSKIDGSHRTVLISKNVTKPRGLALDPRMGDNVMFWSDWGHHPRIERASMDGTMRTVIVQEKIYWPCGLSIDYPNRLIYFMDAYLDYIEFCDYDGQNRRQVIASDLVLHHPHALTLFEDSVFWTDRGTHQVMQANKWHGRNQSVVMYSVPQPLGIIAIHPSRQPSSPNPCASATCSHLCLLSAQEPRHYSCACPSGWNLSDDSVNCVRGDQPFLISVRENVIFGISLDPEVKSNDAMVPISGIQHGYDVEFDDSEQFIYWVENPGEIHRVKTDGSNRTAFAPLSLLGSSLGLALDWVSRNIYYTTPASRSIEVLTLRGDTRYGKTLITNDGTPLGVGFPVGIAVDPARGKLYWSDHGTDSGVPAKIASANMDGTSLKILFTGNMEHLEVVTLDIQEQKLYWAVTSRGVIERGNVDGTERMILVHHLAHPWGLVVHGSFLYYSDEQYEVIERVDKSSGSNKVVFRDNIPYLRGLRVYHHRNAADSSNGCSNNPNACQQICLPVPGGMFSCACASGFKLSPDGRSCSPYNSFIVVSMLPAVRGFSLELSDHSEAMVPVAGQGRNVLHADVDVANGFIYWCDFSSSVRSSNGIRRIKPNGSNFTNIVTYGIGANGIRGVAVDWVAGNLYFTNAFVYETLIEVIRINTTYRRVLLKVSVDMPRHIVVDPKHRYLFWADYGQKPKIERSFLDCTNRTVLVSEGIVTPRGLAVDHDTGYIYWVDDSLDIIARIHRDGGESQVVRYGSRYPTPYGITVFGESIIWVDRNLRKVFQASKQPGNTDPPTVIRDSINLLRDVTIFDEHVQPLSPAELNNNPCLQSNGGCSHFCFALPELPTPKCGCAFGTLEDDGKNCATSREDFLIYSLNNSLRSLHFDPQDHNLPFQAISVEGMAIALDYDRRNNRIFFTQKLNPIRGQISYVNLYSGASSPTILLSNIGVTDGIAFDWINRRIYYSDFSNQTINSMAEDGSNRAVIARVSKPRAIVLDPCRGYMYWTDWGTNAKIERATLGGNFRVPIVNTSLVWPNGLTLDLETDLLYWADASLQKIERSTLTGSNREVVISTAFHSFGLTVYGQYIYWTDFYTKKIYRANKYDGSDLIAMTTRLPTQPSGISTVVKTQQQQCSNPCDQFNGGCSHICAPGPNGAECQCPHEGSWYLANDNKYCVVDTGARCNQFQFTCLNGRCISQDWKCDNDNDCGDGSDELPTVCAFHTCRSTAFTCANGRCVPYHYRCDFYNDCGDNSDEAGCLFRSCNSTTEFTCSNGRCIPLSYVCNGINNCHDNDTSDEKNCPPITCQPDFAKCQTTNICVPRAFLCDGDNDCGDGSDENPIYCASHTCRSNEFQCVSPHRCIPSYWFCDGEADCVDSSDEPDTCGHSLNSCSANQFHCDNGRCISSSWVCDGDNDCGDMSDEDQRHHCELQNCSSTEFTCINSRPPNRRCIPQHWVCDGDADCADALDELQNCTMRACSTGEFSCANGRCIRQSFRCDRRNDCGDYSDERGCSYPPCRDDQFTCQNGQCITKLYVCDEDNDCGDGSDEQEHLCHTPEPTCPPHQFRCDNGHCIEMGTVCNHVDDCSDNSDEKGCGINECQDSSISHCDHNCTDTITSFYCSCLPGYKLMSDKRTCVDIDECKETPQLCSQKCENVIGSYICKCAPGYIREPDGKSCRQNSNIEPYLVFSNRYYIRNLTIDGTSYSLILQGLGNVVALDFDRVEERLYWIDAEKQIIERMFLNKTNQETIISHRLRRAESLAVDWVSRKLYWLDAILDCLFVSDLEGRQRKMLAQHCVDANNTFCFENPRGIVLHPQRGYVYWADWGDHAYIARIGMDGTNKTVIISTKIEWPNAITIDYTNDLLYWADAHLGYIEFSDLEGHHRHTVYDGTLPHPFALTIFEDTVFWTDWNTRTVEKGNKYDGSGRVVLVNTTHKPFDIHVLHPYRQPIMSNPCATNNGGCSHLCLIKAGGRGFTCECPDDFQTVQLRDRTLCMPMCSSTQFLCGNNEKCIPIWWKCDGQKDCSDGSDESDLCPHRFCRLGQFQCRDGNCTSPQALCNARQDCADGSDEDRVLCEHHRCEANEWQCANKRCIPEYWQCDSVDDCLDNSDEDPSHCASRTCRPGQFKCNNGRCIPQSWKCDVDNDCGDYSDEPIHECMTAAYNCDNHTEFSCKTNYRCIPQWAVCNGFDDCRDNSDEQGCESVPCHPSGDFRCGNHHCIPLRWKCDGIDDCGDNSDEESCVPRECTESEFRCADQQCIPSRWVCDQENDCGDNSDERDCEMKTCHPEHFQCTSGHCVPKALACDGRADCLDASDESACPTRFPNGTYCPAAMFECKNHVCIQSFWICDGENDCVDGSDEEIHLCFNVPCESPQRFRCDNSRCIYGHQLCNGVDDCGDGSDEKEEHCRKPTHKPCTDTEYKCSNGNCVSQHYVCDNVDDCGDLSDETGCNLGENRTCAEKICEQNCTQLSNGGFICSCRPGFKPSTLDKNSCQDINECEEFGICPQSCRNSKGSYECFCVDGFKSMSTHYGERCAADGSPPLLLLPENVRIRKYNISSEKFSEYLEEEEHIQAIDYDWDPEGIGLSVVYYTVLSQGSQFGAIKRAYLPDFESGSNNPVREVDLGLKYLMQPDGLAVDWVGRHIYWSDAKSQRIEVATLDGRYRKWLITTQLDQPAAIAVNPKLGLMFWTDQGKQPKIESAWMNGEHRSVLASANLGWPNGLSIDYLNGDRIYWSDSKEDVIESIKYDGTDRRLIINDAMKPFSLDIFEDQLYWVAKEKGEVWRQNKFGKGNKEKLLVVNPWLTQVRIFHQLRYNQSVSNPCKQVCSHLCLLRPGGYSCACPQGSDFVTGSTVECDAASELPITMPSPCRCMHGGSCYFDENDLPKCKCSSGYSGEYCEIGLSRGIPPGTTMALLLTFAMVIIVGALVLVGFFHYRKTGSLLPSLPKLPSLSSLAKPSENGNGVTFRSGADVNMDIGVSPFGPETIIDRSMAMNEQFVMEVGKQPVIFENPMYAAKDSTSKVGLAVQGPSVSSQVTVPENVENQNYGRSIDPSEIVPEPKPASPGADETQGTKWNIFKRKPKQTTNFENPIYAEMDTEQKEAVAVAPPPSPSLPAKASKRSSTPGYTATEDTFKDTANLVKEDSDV

kidney MFI of LC-NP, cilastatin-treated vs vehicle-treated mice (megalin [1]; cilastatin 4 days before LC-NP, 24 hours post-injection): significantly lower
kidney MFI of NPs, cilastatin-treated vs vehicle-treated mice (megalin [1]; mice injected with NPs): no statistical difference
number of LC-NPs taken up by HK-2 cells, with vs without cilastatin (megalin [2]): significantly lower
Structure (SMILES): CC1(C)C[C@@H]1C(=O)N/C(=C\CCCCSC[C@H](N)C(=O)O)C(=O)O [cilastatin, Cilastatin]
